In brackets after ≈: the same amount, converted by molar mass.
Legend:
Experiment in all cases: MIC, broth micro dilution assay (NCCLS)
Format in all cases: cell-based
[1] = system: Enterococcus faecalis A20688; details: Mueller-Hinton medium, 35° C., 18 hours
Procedure, shortened: (§1)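 Broth microdilution in Mueller-Hinton medium, with a final inoculum of about 5×10^5 cfu/well. Plates incubated at 35 °C for 18 hours in ambient air. MIC = lowest drug concentration preventing visible growth.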

[2] = system: Staphylococcus aureus A15090; details: Mueller-Hinton medium, 35° C., 18 hours
Procedure, shortened: as §1

[3] = system: Streptococcus pneumoniae A28272; details: 50% Mueller-Hinton medium and 50% Todd Hewitt medium, 35° C., 18 hours

Row | Compound | MIC (μg/mL) Enterococcus faecalis A20688 [1] [µg/mL] | MIC (μg/mL) Staphylococcus aureus A15090 [2] [µg/mL] | MIC (μg/mL) Streptococcus pneumoniae A28272 [3] [µg/mL]
1 | C=C(NC(=O)c1csc(-c2nc3c(cc2OCOP(=O)(OC(C)(C)C)OC(C)(C)C)-c2nc(cs2)C(=O)NC(C(C)O)C(=O)NC(=C(C)OC)c2nc(cs2)C(=O)NC2c4nc(cs4)C(=O)NC(COC(=O)c4c5c6c(cccc6n4OCOP(=O)(OC(C)(C)C)OC(C)(C)C)COC(=O)C(OC4CC(C)(O)C(N(C)C)C(C)O4)C2OC5)c2nc-3cs2)n1)C(N)=O (stereo not drawn) [Example 73] | 2.0 (≈ 1.06 µM) | 2.0 (≈ 1.06 µM) | 0.25 (≈ 0.133 µM)
2 | C=C(NC(=O)c1csc(-c2nc3c(cc2OC)-c2nc(cs2)C(=O)NC(C(C)O)C(=O)NC(=C(C)OC)c2nc(cs2)C(=O)NC2c4nc(cs4)C(=O)NC(COC(=O)c4c5c6c(cccc6n4O)COC(=O)C(OC4CC(C)(O)C(N(C)C)C(C)O4)C2OC5)c2nc-3cs2)n1)C(N)=O (stereo not drawn) [Example 1] | 0.015 (≈ 0.0103 µM) | 0.015 (≈ 0.0103 µM) | 0.003 (≈ 0.00207 µM)
3 | C=C(NC(=O)c1csc(-c2nc3c(cc2O)-c2nc(cs2)C(=O)NC(C(C)O)C(=O)NC(=C(C)OC)c2nc(cs2)C(=O)NC2c4nc(cs4)C(=O)NC(COC(=O)c4c5c6c(cccc6n4OCOP(=O)(OCC)OCC)COC(=O)C(OC4CC(C)(O)C(N(C)C)C(C)O4)C2OC5)c2nc-3cs2)n1)C(N)=O (stereo not drawn) [Example 41] | 0.03 (≈ 0.0187 µM) | 0.015 (≈ 0.00935 µM) | 0.001 (≈ 0.000624 µM)
4 | C=C(NC(=O)c1csc(-c2nc3c(cc2O)-c2nc(cs2)C(=O)NC(C(C)O)C(=O)NC(=C(C)OC)c2nc(cs2)C(=O)NC2c4nc(cs4)C(=O)NC(COC(=O)c4c5c6c(cccc6n4OCCCOC4OC(CO)C(O)C(O)C4O)COC(=O)C(OC4CC(C)(O)C(N(C)C)C(C)O4)C2OC5)c2nc-3cs2)n1)C(N)=O (stereo not drawn) [Example 58] | >128 | 16 (≈ 9.65 µM) | 0.06 (≈ 0.0362 µM)
5 | C=C(NC(=O)c1csc(-c2nc3c(cc2OCC(=O)NCCNC(=O)OC(C)(C)C)-c2nc(cs2)C(=O)NC(C(C)O)C(=O)NC(=C(C)OC)c2nc(cs2)C(=O)NC2c4nc(cs4)C(=O)NC(COC(=O)c4c5c6c(cccc6n4OCC(=O)NCCNC(=O)OC(C)(C)C)COC(=O)C(OC4CC(C)(O)C(N(C)C)C(C)O4)C2OC5)c2nc-3cs2)n1)C(N)=O (stereo not drawn) [Example 69] | 64 (≈ 34.8 µM) | 16 (≈ 8.7 µM) | 0.25 (≈ 0.136 µM)
6 | C=C(NC(=O)c1csc(-c2nc3c(cc2OS(=O)(=O)c2cn(C)cn2)-c2nc(cs2)C(=O)NC(C(C)O)C(=O)NC(=C(C)OC)c2nc(cs2)C(=O)NC2c4nc(cs4)C(=O)NC(COC(=O)c4c5c6c(cccc6n4OCCCNS(=O)(=O)c4cn(C)cn4)COC(=O)C(OC4CC(C)(O)C(N(C)C)C(C)O4)C2OC5)c2nc-3cs2)n1)C(N)=O (stereo not drawn) [Example 87] | 2.0 (≈ 1.12 µM) | 1.0 (≈ 0.561 µM) | 0.06 (≈ 0.0337 µM)
7 | C=C(NC(=O)c1csc(-c2nc3c(cc2OCC(O)CO)-c2nc(cs2)C(=O)NC(C(C)O)C(=O)NC(=C(C)OC)c2nc(cs2)C(=O)NC2c4nc(cs4)C(=O)NC(COC(=O)c4c5c6c(cccc6n4O)COC(=O)C(OC4CC(C)(O)C(N(C)C)C(C)O4)C2OC5)c2nc-3cs2)n1)C(N)=O (stereo not drawn) [Example 3] | 2.0 (≈ 1.32 µM) | 1.0 (≈ 0.662 µM) | 0.25 (≈ 0.165 µM)
8 | C=C(NC(=O)c1csc(-c2nc3c(cc2OCCCS(=O)(=O)[O-])-c2nc(cs2)C(=O)NC(C(C)O)C(=O)N/C(=C(\C)OC)c2nc(cs2)C(=O)NC2c4nc(cs4)C(=O)NC(COC(=O)c4c5c6c(cccc6n4O)COC(=O)C(OC4CC(C)(O)C(N(C)C)C(C)O4)C2OC5)c2nc-3cs2)n1)C(N)=O.[Na+] (stereo not drawn) [Example 28] | 32 | 2.0 | 0.25
9 | COC(C)=C1NC(=O)C(C(C)O)NC(=O)c2csc(n2)-c2cc(OCC(=O)OC(C)(C)C)c(-c3nc(C(N)=O)cs3)nc2-c2csc(n2)C2COC(=O)c3c4c5c(cccc5n3OCC(=O)OC(C)(C)C)COC(=O)C(OC3CC(C)(O)C(N(C)C)C(C)O3)C(OC4)C(NC(=O)c3csc1n3)c1nc(cs1)C(=O)N2 (stereo not drawn) [Example 82] | 0.06 (≈ 0.0376 µM) | 0.03 (≈ 0.0188 µM) | 0.015 (≈ 0.00939 µM)
10 | C=C(NC(=O)c1csc(-c2nc3c(cc2O)-c2nc(cs2)C(=O)NC(C(C)O)C(=O)NC(=C(C)OC)c2nc(cs2)C(=O)NC2c4nc(cs4)C(=O)NC(COC(=O)c4c5c6c(cccc6n4OCC(=O)OC)COC(=O)C(OC4CC(C)(O)C(N(C)C)C(C)O4)C2OC5)c2nc-3cs2)n1)C(N)=O (stereo not drawn) [Example 37] | 0.06 (≈ 0.0397 µM) | 0.03 (≈ 0.0199 µM) | 0.001 (≈ 0.000662 µM)
11 | C=C(NC(=O)c1csc(-c2nc3c(cc2OCCN2CCOCC2)-c2nc(cs2)C(=O)NC(C(C)O)C(=O)NC(=C(C)OC)c2nc(cs2)C(=O)NC2c4nc(cs4)C(=O)NC(COC(=O)c4c5c6c(cccc6n4OCCN4CCOCC4)COC(=O)C(OC4CC(C)(O)C(N(C)C)C(C)O4)C2OC5)c2nc-3cs2)n1)C(N)=O (stereo not drawn) [Example 26] | 0.25 (≈ 0.15 µM) | 1.0 (≈ 0.601 µM) | 0.03 (≈ 0.018 µM)
12 | C#CCOc1cc2c(nc1-c1nc(C(=O)NC(=C)C(N)=O)cs1)-c1csc(n1)C1COC(=O)c3c4c5c(cccc5n3OCC#C)COC(=O)C(OC3CC(C)(O)C(N(C)C)C(C)O3)C(OC4)C(NC(=O)c3csc(n3)C(=C(C)OC)NC(=O)C(C(C)O)NC(=O)c3csc-2n3)c2nc(cs2)C(=O)N1 (stereo not drawn) [Example 75] | 0.06 (≈ 0.0396 µM) | 0.03 (≈ 0.0198 µM) | 0.0005 (≈ 0.00033 µM)
13 | C=C(NC(=O)c1csc(-c2nc3c(cc2OC(=O)c2ccc(Br)cc2)-c2nc(cs2)C(=O)NC(C(C)O)C(=O)NC(=C(C)OC)c2nc(cs2)C(=O)NC2c4nc(cs4)C(=O)NC(COC(=O)c4c5c6c(cccc6n4O)COC(=O)C(OC4CC(C)(O)C(N(C)C)C(C)O4)C2OC5)c2nc-3cs2)n1)C(N)=O (stereo not drawn) [Example 32] | 1.0 (≈ 0.617 µM) | 1.0 (≈ 0.617 µM) | 0.015 (≈ 0.00926 µM)
14 | C=C(NC(=O)c1csc(-c2nc3c(cc2O)-c2nc(cs2)C(=O)NC(C(C)O)C(=O)NC(=C(C)OC)c2nc(cs2)C(=O)NC2c4nc(cs4)C(=O)NC(COC(=O)c4c5c6c(cccc6n4OC(=O)NCCCN4CCN(C)CC4)COC(=O)C(OC4CC(C)(O)C(N(C)C)C(C)O4)C2OC5)c2nc-3cs2)n1)C(N)=O (stereo not drawn) [Example 16] | 0.003 (≈ 0.00185 µM) | 0.003 (≈ 0.00185 µM) | 0.0005 (≈ 0.000308 µM)
15 | C=C(NC(=O)c1csc(-c2nc3c(cc2O)-c2nc(cs2)C(=O)NC(C(C)O)C(=O)NC(=C(C)OC)c2nc(cs2)C(=O)NC2c4nc(cs4)C(=O)NC(COC(=O)c4c5c6c(cccc6n4OCCO)COC(=O)C(OC4CC(C)(O)C(N(C)C)C(C)O4)C2OC5)c2nc-3cs2)n1)C(N)=O (stereo not drawn) [Example 36] | 0.25 (≈ 0.169 µM) | 0.25 (≈ 0.169 µM) | 0.007 (≈ 0.00472 µM)
16 | C=C(NC(=O)c1csc(-c2nc3c(cc2O)-c2nc(cs2)C(=O)NC(C(C)O)C(=O)NC(=C(C)OC)c2nc(cs2)C(=O)NC2c4nc(cs4)C(=O)NC(COC(=O)c4c5c6c(cccc6n4OCCC(=O)[O-])COC(=O)C(OC4CC(C)(O)C(N(C)C)C(C)O4)C2OC5)c2nc-3cs2)n1)C(N)=O.[Na+] (stereo not drawn) [Example 44] | 0.25 | 0.125 | 0.03
17 | COC(C)=C1NC(=O)C(C(C)O)NC(=O)c2csc(n2)-c2cc(O)c(-c3nc(C(N)=O)cs3)nc2-c2csc(n2)C2COC(=O)c3c4c5c(cccc5n3OCCCCS(=O)(=O)O)COC(=O)C(OC3CC(C)(O)C(N(C)C)C(C)O3)C(OC4)C(NC(=O)c3csc1n3)c1nc(cs1)C(=O)N2 (stereo not drawn) [Example 59] | >128 | 16 (≈ 10.6 µM) | 0.5 (≈ 0.332 µM)
18 | C=C(NC(=O)c1csc(-c2nc3c(cc2OCC(=O)OC(C)(C)C)-c2nc(cs2)C(=O)NC(C(C)O)C(=O)NC(=C(C)OC)c2nc(cs2)C(=O)NC2c4nc(cs4)C(=O)NC(COC(=O)c4c5c6c(cccc6n4OCC(=O)OC(C)(C)C)COC(=O)C(OC4CC(C)(O)C(N(C)C)C(C)O4)C2OC5)c2nc-3cs2)n1)C(N)=O (stereo not drawn) [Example 68] | 4.0 (≈ 2.4 µM) | 8.0 (≈ 4.8 µM) | 0.007 (≈ 0.0042 µM)
19 | C=C(NC(=O)c1csc(-c2nc3c(cc2O)-c2nc(cs2)C(=O)NC(C(C)O)C(=O)NC(=C(C)OC)c2nc(cs2)C(=O)NC2c4nc(cs4)C(=O)NC(COC(=O)c4c5c6c(cccc6n4OCCCN4CCN(C)CC4)COC(=O)C(OC4CC(C)(O)C(N(C)C)C(C)O4)C2OC5)c2nc-3cs2)n1)C(N)=O (stereo not drawn) [Example 50] | 1.0 (≈ 0.634 µM) | 1.0 (≈ 0.634 µM) | 0.03 (≈ 0.019 µM)
